What was measured:
N[C@H](CCC(=O)O)C(=O)O = experiment: purified protein; details: substrate binding site; Cys75 and Cys185 catalytic residues
[1] = biological target: Glutamate racemase (MTB-MurI) (Mycobacterium tuberculosis, UniProt P9WPW9); experiment: GDH-coupled racemization assay (A340), Lineweaver-Burk and Dixon plots; […]; format: biochemical
Chain of Glutamate racemase (MTB-MurI) (P9WPW9 whole entry, looked up): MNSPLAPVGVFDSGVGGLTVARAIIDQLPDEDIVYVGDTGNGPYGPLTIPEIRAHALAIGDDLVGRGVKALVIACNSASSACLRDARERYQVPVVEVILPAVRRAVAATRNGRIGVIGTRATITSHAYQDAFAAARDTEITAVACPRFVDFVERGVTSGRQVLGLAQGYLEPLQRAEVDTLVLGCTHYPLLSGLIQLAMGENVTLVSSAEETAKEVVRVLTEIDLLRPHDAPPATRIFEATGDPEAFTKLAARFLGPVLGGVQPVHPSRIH

Compound	Km (N[C@H](CCC(=O)O)C(=O)O) [µM]	Ki [1] [µM]
Glutamate racemase (MTB-MurI) (Mycobacterium tuberculosis H37Rv)	499	
O=c1c(O)c(-c2ccc(O)c(O)c2)oc2cc(O)cc(O)c12 [quercetin]		20.8
O=C1C[C@@H](c2ccc(O)cc2)Oc2cc(O)cc(O)c21 [naringenin]		23.8

From paper PMC6976638, “Screening of natural compounds that targets glutamate racemase of Mycobacterium tuberculosis reveals the anti-tubercular potential of flavonoids” (Scientific Reports, 2020)
